# Measured values published in publication PMC12396409, “Screening and hit evaluation of a microbial metabolite library against the pathogenic Plasmodium falciparum and Toxoplasma gondii parasites” (International Journal for Parasitology: Drugs and Drug …, 2025).
# Read-outs that look alike come from different tables or passages of the source.
# Tests used:
# [1] = tested on: P. falciparum 3D7 parasites; assay: P. falciparum growth inhibition assay, 1-cycle (72 h treatment), SYBR DNA staining (library screen at 2 μg/mL and dose-response); format: cell-based, Plasmodium falciparum; conditions: 72 h; for activity at 2 µg/mL: Plasmodium falciparum, 3D7
# [2] = tested on: P. falciparum 3D7 parasites; assay: P. falciparum growth inhibition assay, 2-cycle (120 h treatment), delayed-death screen and dose-response; format: cell-based, Plasmodium falciparum; conditions: 120 h; for activity at 2 µg/mL: Plasmodium falciparum, 3D7
# [3] = tested on: T. gondii RH strain (RH-Tub-eYFP) tachyzoites; assay: microbe, parasite or virus in culture; format: cell-based, Toxoplasma gondii; conditions: 72 h; for percent parasite growth at 2 µg/mL: Toxoplasma gondii
# [4] = library screen at 2 μg/mL, % growth, replicate 1
# [5] = library screen at 2 μg/mL, % growth, replicate 2
# [6] = P. falciparum, parasite screen 2 μg/mL, % growth, replicate 1
# [7] = P. falciparum, parasite screen 2 μg/mL, % growth, replicate 2
# [8] = T. gondii, parasite screen 2 μg/mL, % growth, replicate 1
# [9] = T. gondii, parasite screen 2 μg/mL, % growth, replicate 2
# [10] = P. falciparum, screen at 2 μg/mL, replicate 1
# [11] = P. falciparum, screen at 2 μg/mL, replicate 2
# [12] = T. gondii, screen at 2 μg/mL, replicate 1
# [13] = T. gondii, screen at 2 μg/mL, replicate 2
structure (smiles),measurement,setting,value
COc1c(OC)c(-c2c[nH]c3ccccc23)c(OC)c(OC)c1-c1c[nH]c2ccccc12 [Asterriquinol D dimethylether],Pf_72h_%Growth_Rep1,[1]; [4],80.59%
same,Pf_72h_%Growth_Rep2,[1]; [5],80.67%
same,Pf_120h_%Growth_Rep1,[2]; [4],55.71%
same,Pf_120h_%Growth_Rep2,[2]; [5],80.70%
same,Tg_72h_%Growth_Rep1,[3]; [4],135.53%
same,Tg_72h_%Growth_Rep2,[3]; [5],89.90%
C/C(=C\C(=O)OCCCCCCCCC(=O)O)C[C@@H]1OC[C@H](C[C@@H]2O[C@H]2[C@@H](C)[C@H](C)O)[C@@H](O)[C@H]1O [Pseudomonic acid],activity at 2 µg/mL,"[1]; P. falciparum, parasite screen 2 μg/mL, % growth, replicate 1, read-out: Pf_72h_%Growth_Rep1",29.1%
same,activity at 2 µg/mL,"[1]; P. falciparum, parasite screen 2 μg/mL, % growth, replicate 2, read-out: Pf_72h_%Growth_Rep2",6.31%
same,activity at 2 µg/mL,"[2]; P. falciparum, parasite screen 2 μg/mL, % growth, replicate 1, read-out: Pf_120h_%Growth_Rep1",0.62%
same,activity at 2 µg/mL,"[2]; P. falciparum, parasite screen 2 μg/mL, % growth, replicate 2, read-out: Pf_120h_%Growth_Rep2",28.1%
same,percent parasite growth at 2 µg/mL,"[3]; T. gondii, parasite screen 2 μg/mL, % growth, replicate 1, read-out: Tg_72h_%Growth_Rep1",70.8%
same,percent parasite growth at 2 µg/mL,"[3]; T. gondii, parasite screen 2 μg/mL, % growth, replicate 2, read-out: Tg_72h_%Growth_Rep2",74.5%
COc1cc(C[C@H]2C(=O)OC[C@@H]2Cc2ccc3c(c2)OCO3)ccc1O [Pluviatolide],Pf_72h_%Growth_Rep1,[1]; [6],81.43%
same,Pf_72h_%Growth_Rep2,[1]; [7],88.63%
same,Pf_120h_%Growth_Rep1,[2]; [6],90.86%
same,Pf_120h_%Growth_Rep2,[2]; [7],133.22%
same,Tg_72h_%Growth_Rep1,[3]; [8],140.42%
same,Tg_72h_%Growth_Rep2,[3]; [9],93.56%
CCCCCC[C@H]1C(=O)O[C@H](C)[C@@H](O)/C=C/C=C/C=C/C=C/C=C(\C)[C@@H](O)C[C@H](O)C[C@H](O)C[C@H](O)C[C@H](O)C[C@H](O)C[C@@H]1O [Filipin II],Pf_72h_%Growth_Rep1,[1]; [4],85.18%
same,Pf_72h_%Growth_Rep2,[1]; [5],87.84%
same,Pf_120h_%Growth_Rep1,[2]; [4],90.65%
same,Pf_120h_%Growth_Rep2,[2]; [5],90.94%
same,Tg_72h_%Growth_Rep1,[3]; [4],129.59%
same,Tg_72h_%Growth_Rep2,[3]; [5],103.40%
C=CC(C)(C)c1[nH]c2ccccc2c1C[C@@H]1NC(=O)[C@@H]2CCCN2C1=O [Deoxybrevianamide E],Pf_72h_%Growth_Rep1,[1]; [10],84.72%
same,Pf_72h_%Growth_Rep2,[1]; [11],85.50%
same,Pf_120h_%Growth_Rep1,[2]; [10],100.44%
same,Pf_120h_%Growth_Rep2,[2]; [11],95.74%
same,Tg_72h_%Growth_Rep1,[3]; [12],164.73%
same,Tg_72h_%Growth_Rep2,[3]; [13],103.33%
C[C@H]1NC(=O)[C@@H]2CCCN2C1=O [Cyclo(D-Ala-L-Pro)],Pf_72h_%Growth_Rep1,[1]; [10],84.19%
same,Pf_72h_%Growth_Rep2,[1]; [11],89.96%
same,Pf_120h_%Growth_Rep1,[2]; [10],102.13%
same,Pf_120h_%Growth_Rep2,[2]; [11],92.71%
same,Tg_72h_%Growth_Rep1,[3]; [12],121.18%
same,Tg_72h_%Growth_Rep2,[3]; [13],102.00%
CC[C@H]1OC(=O)[C@H](C)[C@@H](O[C@H]2C[C@@](C)(OC)[C@@H](O)[C@H](C)O2)[C@H](C)[C@@H](O[C@@H]2O[C@H](C)C[C@H](N(C)C)[C@H]2O)[C@](C)(OC)C[C@@H](C)C(=O)[C@H](C)[C@@H](O)[C@]1(C)O [Clarithromycin],activity at 2 µg/mL,"[1]; P. falciparum, screen at 2 μg/mL, replicate 1, read-out: Pf_72h_%Growth_Rep1",74.8%
same,activity at 2 µg/mL,"[1]; P. falciparum, screen at 2 μg/mL, replicate 2, read-out: Pf_72h_%Growth_Rep2",62.6%
same,activity at 2 µg/mL,"[2]; P. falciparum, screen at 2 μg/mL, replicate 1, read-out: Pf_120h_%Growth_Rep1",31.2%
same,activity at 2 µg/mL,"[2]; P. falciparum, screen at 2 μg/mL, replicate 2, read-out: Pf_120h_%Growth_Rep2",16.9%
same,percent parasite growth at 2 µg/mL,"[3]; T. gondii, screen at 2 μg/mL, replicate 1, read-out: Tg_72h_%Growth_Rep1",40.9%
same,percent parasite growth at 2 µg/mL,"[3]; T. gondii, screen at 2 μg/mL, replicate 2, read-out: Tg_72h_%Growth_Rep2",40.8%
CC1=C[C@]2(C)/C=C(C)/C=C/C[C@@H](O)/C=C3C=C/C(=C4\C(=O)O[C@]2(C[C@@H]1C)C4=O)OC/3 [Spirohexenolide A],Pf_72h_%Growth_Rep1,[1]; [6],8.85%
same,Pf_72h_%Growth_Rep2,[1]; [7],0.46%
same,Pf_120h_%Growth_Rep1,[2]; [6],19.42%
same,Pf_120h_%Growth_Rep2,[2]; [7],-9.19%
same,Tg_72h_%Growth_Rep1,[3]; [8],115.19%
same,Tg_72h_%Growth_Rep2,[3]; [9],70.63%
